Measured values published in US6737547B1, “Compositions containing and methods of using N-acyl-1H-aminoindenes” (Teva Pharmaceutical Industries, Ltd., priority 1998, dated 2004).
Entries after “also recorded” stand apart in the source; their conditions may differ. Like-named read-outs stand apart in the source and are kept apart here.

Key:
mice = assay: Protection against hypobaric hypoxia in mice (survival time); format: in vivo
Protocol: The apparatus used consisted of two chambers A and B connected by a three-way valve. […] The air in chamber A was evacuated to a pressure of 100 mm Hg. The three way valve was turned to disconnect chamber B from room air and to connect it to chamber A. At this point, the pressure in B fell to 200 mm Hg. Survival of residing mice was determined up to a maximum exposure of 15 minutes, and is defined as the time between onset of hypoxia to cessation of respiration.

Male ICR mice = assay: Protection against maximal electroshock-induced seizure in mice (MES); format: in vivo; conditions: for protected/total: electroshock 30 min after medication; for ED50: Mus musculus, median effective dose, maximal electroshock, mice, ip, read-out: ED50 (95% confidence limits)
Protocol: Male ICR mice were used. The rodent shocker apparatus consisted of a shock stimulator Type 221 (Hugo Sachs Elektronik, Germany) with a current setting for mice. Thirty minutes after medication with a given agent, given intraperitoneally as a fine slurry in methyl cellulose 0.5% in distilled water, each mouse received an electroshock of 50 mA for 0.2 seconds, applied to the eye, at a maximum of 250 V/300 mA. The ratio of mice protected against seizure in a group of four per dose was determined and used as an indicator of neuroprotective activity.
Protection of mice against seizures induced by electroshock is a widely used model to probe for potential anti-epileptic agents (see, for example, Y. I. Sohn et al., Anticonvulsant properties of diphenylthiohydantoin, Arch. Int. Pharmacodyn. 188, 284-289, 1970).

[1] = test system: guinea-pig ileal preparation; assay: Decrease of contractile response to intramural electric stimulation in the guinea-pig ileal preparation; conditions: Cavia porcellus
Protocol: A 2 cm-long section of the distal ileum freshly dissected from a CO2-asphyxiated guinea pig is cleaned from adhering tissue and mounted in an organ bath (5 mL) containing Krebs solution constantly aerated with oxygen containing 5% CO2. The initial tension is adjusted at 5 g per strip. Tension is monitored isometrically with a Grass FTC3 force transducer. Intramural electric stimulation is delivered through a platinum electrode from a Grass stimulator model s88, s44 at supramaximal voltage (V) and a frequency of 0.1/s. The preparation develops a rhythmic contractile response at maximal amplitude which is stable over time. Addition of test drugs to the organ bath causes a dose-dependent decrease in contraction amplitude which is stable over 5-8 minutes. The relative decrease in contractile response indicates the relative potency of a given agent in a series.
Blocking or decreasing neural excitability evoked by programmed electric stimulation is another indicator of a compound's potential neuroprotective activity. A convenient test system uses the guinea-pig ileal preparation mounted in an organ bath (see, for example, Eiichi Hayashi et al., European J. Pharmacol 48, 297-307, 1978).

[2] = test system: guinea-pig ileal preparation; assay: Decrease in contractile response of guinea-pig ileum evoked by the nicotinic agonist DMPP; parameters: Emax: dose or concentration left out as unconfirmed
Protocol: A strip of guinea-pig ileum is mounted in an organ bath, as described in EXAMPLE 10. 1-N,N-dimethyl-4-N-phenylpiperazinium chloride (DMPP) is added at intervals of about 15 minutes in order of increasing dose, to cause bath concentrations in the range of 0.1-10 uM. A brief contraction follows each addition. The amplitude of the contractile response is used to derive a dose-response relationship for DMPP. Usually, a bath concentration of 1 uM DMPP will give 90-100% of the maximal response obtainable in the given preparation. One of two procedures follows this: A dose-response of a test compound is determined in the presence of a fixed concentration of DMPP. This is done by incubating the preparation with a given concentration of the test compound, then challenging it with DMPP at a dose to give 1 uM bath concentration. The procedure is repeated with the next higher concentration of the test compound. In the other procedure, the dose-response of DMPP is determined in the presence of a fixed bath concentration of the test compound, usually 200 uM.
When intramural nerve stimulation occurs, as in the case of electrical stimulation, the contractile effector substance is released from nerve endings by a depolarization wave that propagates along the parasympathetic nerve fiber until its junction with smooth muscle of the ileum. An alternative but not equivalent procedure is stimulation of parasympathetic ganglia by an appropriate nicotinic agonist such as 1-N,N-dimethyl-4-N-phenylpiperazinium chloride (DMPP). Stimulation of parasympathetic ganglia causes a depolarization wave in the post-ganglionic nerve fiber which terminates on the smooth muscle of the ileum, causing release of contractile effector and contraction (see, for example, E. S. Vizi, Acetylcholine release from guinea-pig ileum by parasympathetic ganglion stimulants and gastrin-like polypeptides, Br. J. Pharmacol. 47, 765-77. 1973).

[3] = test system: guinea-pig ileal preparation; assay: Potentiation of adenosine depression of contractile response, procedure I (in the presence of test compound); conditions: drug present
Protocol: (§1) The test system used is the intramural electrically-stimulated guinea-pig ileal preparation as described in EXAMPLE 10. Adenosine added to the organ bath in rising concentrations in the range 0.1-10 uM causes a dose-dependent decrease in contraction amplitude, with an EC50 of about 1 uM.
In procedure I, the effect of a given concentration of adenosine, usually, 0.2 or 0.4 uM was first determined and related to the full contractile response in the absence of adenosine. […] The amplitude of the contractile response was recorded. Now, adenosine was added at the same dose initially used, and the effect of adenosine in the presence of the test compound was recorded.
(§2) The calculated effect is the product of the responses to each of the two agents when applied separately. The potentiation ratio is defined as (100%found)/(100-% calculated).

[4] = test system: guinea-pig ileal preparation; assay: Potentiation of adenosine depression of contractile response, procedure II (after exposure to and washout of test compound); conditions: for Mean potentiation ratio ± SEM / potentiation ratio, Max / potentiation ratio, Min: adenosine 0.4 uM, after exposure and washout, 5, 50-400, 6, 50-400; for Mean potentiation ratio ± SEM: drug conc. (uM): 3, 100-400, 2a, 1000, 2, 1000; for potentiation ratio, Max / potentiation ratio, Min: drug conc. range (uM): 3, 100-400
Protocol: as §1, §2
In all cases, the difference between the calculated and observed response was statistically significant. […] In procedure II, the dose response to adenosine was determined before and after exposure of the preparation to the test drug and washout of the test drug from the organ bath. In this case, significant potentiation of adenosine was observed even though the test drug had been washed out from the organ bath. In fact, the potentiation ratio, as defined earlier, was even higher than found in the presence of the test compounds (Procedure I), reaching very high values.

[5] = Mus musculus, ip, read-out: survival ± SD (survival time as percent of vehicle control)
[6] = calculated from logit plot, contractile response to intramural electric stimulation, read-out: EC50
[7] = Mus musculus, 25 mg/kg, ip, mice, 200 mm Hg, read-out: survival ± SD (survival time as percent of vehicle control)
[8] = Mus musculus, 50 mg/kg, ip, mice, 200 mm Hg, read-out: survival ± SD (survival time as percent of vehicle control)
[9] = Mus musculus, ip, mice, 200 mm Hg, read-out: survival ± SD (survival time as percent of vehicle control)
[10] = dose of 25 mg/kg, listed in decreasing order of activity
[11] = Cavia porcellus, calculated from logit plot, inhibiting contractile response to 1 uM DMPP, read-out: EC50
[12] = adenosine 0.4 uM, drug conc. range (uM): 3, 20-400, 5, 50-200, 6, 25-50
[13] = Mus musculus, 12.5 mg/kg, ip, mice, 200 mm Hg, read-out: survival ± SD (survival time as percent of vehicle control)
[14] = adenosine 0.1 uM, drug conc. range 40-400 uM
[15] = adenosine 0.2 uM, drug conc. range 40-400 uM

## CC(=O)NC1=CCCc2ccccc21 [Compound 4, N-Acetyl-4-amino-1,2-dihydronaphthalene]
mice; [5]
  response vs control in vivo at 25 mg/kg: 156 ± 24%
mice; dose not given
  activity in the hypobaric hypoxia model (in words): inactive
Male ICR mice; 75 mg/kg intraperitoneally
  protected/total: 0/4
Male ICR mice; 100 mg/kg intraperitoneally
  protected/total: 3/4
Male ICR mice
  ED50: 92.3 mg/kg
[1]; [6]
  EC50: 752 µM
[2]; Cavia porcellus
  EC50: 193 µM

## CC(=O)NC1=CCc2cc(Cl)ccc21 [Compound 6, N-Acetyl-3-amino-6-chloro-1H-indene]
mice; [7]
  response vs control in vivo at 25 mg/kg: 393 ± 110%
mice; [8]
  response vs control in vivo at 50 mg/kg: 234 ± 120%
mice; [9]
  response vs control in vivo at 100 mg/kg: 294 ± 267%
mice; [10]
  activity in the hypobaric hypoxia model (in words): strong activity
Male ICR mice; 50 mg/kg intraperitoneally
  protected/total: 2/4
Male ICR mice; 100 mg/kg intraperitoneally
  protected/total: 4/4
Male ICR mice
  ED50: 50 mg/kg
[1]; [6]
  EC50: 133 µM
[2]; [11]
  EC50: 27 µM
[3]; [12]
  Mean potentiation ratio ± SEM: 1.93 ± 0.39
  potentiation ratio, Max: 2.32
  potentiation ratio, Min: 1.54
[4]
  Mean potentiation ratio ± SEM: 8.82 ± 1.2
  potentiation ratio, Max: 12.28
  potentiation ratio, Min: 6.86
[4]; after exposure to and washout of the potentiating agent
  rate of restoration of the original response to adenosine after washout: slowest
[4]; guinea pig ileal preparation after wash-out
  potentiating effect retained after wash-out from the organ bath (in words): prolonged potentiating effect

## CC(=O)NC1=CCc2ccccc21 [Compound 3, N-Acetyl-3-amino-1H-indene]
mice; 50 mg/kg, mice
  protection over 2a (control): 1000%
  side effects: minor and transient side effects such as slight sedation, hypopnea and defecation
mice; [13]
  response vs control in vivo at 12.5 mg/kg: 637 ± 341%
mice; [7]
  response vs control in vivo at 25 mg/kg: 735 ± 238%
mice; [8]
  response vs control in vivo at 50 mg/kg: 879 ± 237%
mice; [9]
  response vs control in vivo at 100 mg/kg: 703 ± 242%
mice; [10]
  activity in the hypobaric hypoxia model (in words): strong activity
Male ICR mice; 100 mg/kg intraperitoneally
  protected/total: 1/4
Male ICR mice; 125 mg/kg intraperitoneally
  protected/total: 2/4
Male ICR mice; 150 mg/kg intraperitoneally
  protected/total: 4/4
Male ICR mice
  ED50: 116 mg/kg
[1]; [6]
  EC50: 251 µM
[2]; [11]
  EC50: 170 µM
[2]; test compound at 200 uM fixed bath concentration, FIG. 8
  reversibility of the depression by rising concentrations of DMPP: not reversible; also recorded: irreversibly blocked
[3]; [12]
  Mean potentiation ratio ± SEM: 1.49 ± 0.075
  potentiation ratio, Max: 1.74
  potentiation ratio, Min: 1.29
[4]
  Mean potentiation ratio ± SEM: 1.54 ± 0.25
  potentiation ratio, Max: 1.99
  potentiation ratio, Min: 1.14

## COC(=O)NC1=CCc2ccccc21 [Compound 8, N-Methoxycarbonyl-3-amino-1H-indene]
mice; [5]
  response vs control in vivo at 12.5 mg/kg: 195 ± 90%
  response vs control in vivo at 25 mg/kg: 402 ± 348%
  response vs control in vivo at 50 mg/kg: 547 ± 327%
mice; [10]
  activity in the hypobaric hypoxia model (in words): strong activity

## CC(=O)NC1CCc2cc(Cl)ccc21 (stereo not shown) [Compound 13, reference compound]
mice; [8]
  response vs control in vivo at 50 mg/kg: 148 ± 77%
mice; [9]
  response vs control in vivo at 100 mg/kg: 267 ± 151%

## O=CNC1=CCc2cc(Cl)ccc21 [Compound 7, N-formyl-6-chloro-3-amino-1H-indene]
mice; [13]
  response vs control in vivo at 12.5 mg/kg: 357 ± 299%
mice; [7]
  response vs control in vivo at 25 mg/kg: 467 ± 239%
mice; [8]
  response vs control in vivo at 50 mg/kg: 893 ± 433%
mice; [10]
  activity in the hypobaric hypoxia model (in words): strong activity

## CCCC(CCC)C(=O)[O-].[Na+] [Sodium valproate, sodium valproate, reference compound]
Male ICR mice; 280 mg/kg
  protected/total: 1/8
Male ICR mice; 310 mg/kg
  protected/total: 2/8
Male ICR mice; 340 mg/kg
  protected/total: 4/8
Male ICR mice; 400 mg/kg
  protected/total: 6/8
Male ICR mice; 600 mg/kg
  protected/total: 8/8
Male ICR mice
  ED50: 350 mg/kg

## Nc1ncnc2c1ncn2[C@@H]1O[C@H](CO)[C@@H](O)[C@H]1O [Adenosine, adenosine, reference compound]
[1]; adenosine added in rising concentrations 0.1-10 uM, electrically-stimulated ileal preparation, read-out: EC50 of decrease in contraction amplitude
  EC50: ~1 µM

## CC(=O)NC1CCc2ccccc21 (stereo not shown) [Compound 2, N-acetyl-1-aminoindan, reference compound]
mice; [9]
  response vs control in vivo at 100 mg/kg: 200%
[1]; [6]
  EC50: 1840 µM
[3]; [14]
  Mean potentiation ratio ± SEM: 1.35 ± 0.07
  potentiation ratio, Max: 1.49
  potentiation ratio, Min: 1.16
[3]; [15]
  Mean potentiation ratio ± SEM: 1.24 ± 0.16
  potentiation ratio, Max: 1.51
  potentiation ratio, Min: 0.79
[4]
  Mean potentiation ratio ± SEM: 0.87

## CCCC(C)C1(CC)C(=O)N=C([O-])NC1=O.[Na+] (stereo not shown) [Nembutal, reference compound]
mice; 40 mg/kg, ip, mice, 200 mm Hg
  survival ± SD (survival time as percent of vehicle control): 253 ± 200% of vehicle control

## C[N+]1(C)CCN(c2ccccc2)CC1 [DMPP, 1-N,N-dimethyl-4-N-phenylpiperazinium chloride, reference compound]
[2]; Cavia porcellus, read-out: contractile response as % of the maximal response obtainable
  Emax: 90 to 100%

## CN1C(=O)CN=C(c2ccccc2)c2cc(Cl)ccc21 [Diazepam, diazepam, reference compound]
mice; [5]
  response vs control in vivo at 10 mg/kg: 316 ± 78%
